Experimental data reported in patent US20200338229A1, “ANTIMICROBIAL ADHESIVE DRESSINGS” (priority 2015, published 2020).
Read-outs that look alike come from different tables or passages of the source.

Legend:
[1] = in the silicone adhesive of this invention
[2] = cited from earlier work
[3] = in the presence of light; cited from earlier work

Substance: Polyhexamethylene biguanide [PHMB]
- stability to autoclaving ([1]; autoclaving at 121° C.): stable
- stability to curing temperature ([1]; curing temperature of 140° C.): stable
- solubility ([2]; in oils and hydrocarbons and silicone elastomers): not soluble
- solubility ([2]; in water, alcohols and glycols): soluble
- pH range of stability [3]: 4-10 pH
- temperature up to which stable [3]: up to 80 °C
